Literature values in US11992483B2, “Emulsions for local anesthetics” (Cali Pharmaceuticals, LLC, priority 2021, dated 2024).
Where a name gives a salt, the structure may show the parent alone. Read-outs that look alike come from different tables or passages of the source.

Conditions: for log P: octanol/water

solubility in water | log P | P (octanol:water partition coefficient) | log P (hydrochloride) | P (octanol:water partition coefficient) (hydrochloride) | Structure (SMILES)
insoluble in water | 2.9 | 794 |  |  | CCCN1CCCC[C@H]1C(=O)Nc1c(C)cccc1C [ropivacaine free base, ropivacaine]
 |  |  | 1.1 | 14 | CCCN1CCCC[C@H]1C(=O)Nc1c(C)cccc1C [ropivacaine hydrochloride]
